The values below come from patent US11242334B2, “Heterocyclic compounds as kinase inhibitors, compositions comprising the heterocyclic compound, and methods of use thereof” (JS INNOPHARM (SHANGHAI) LTD, priority 2017, dated 2022).

Where only a bound is given, the exact number is not on record here.

Assay [1] concerns the target T1, human ERK2 (Homo sapiens, UniProt P28482).
T1 construct: recombinantly expressed as GST-tagged full-length protein purified from E. coli; GST; purchased Invitrogen PV3311; host or cells: E. coli
As to the kind of experiment: LanthaScreen TR-FRET enzymatic assay, ERK2. As to conditions: IC50 values of ERK2 biochemical activity; 5 μM ATP, 400 nM ATF2-GFP substrate. How it is done: Compounds were tested in a LanthaScreen™ time-resolved fluorescence energy transfer (TR-FRET) enzymatic assay from Invitrogen. The assay used human ERK2 (Mitogen Activated Kinase 1, Invitrogen, Cat. PV3311) recombinantly expressed as GST-tagged full-length protein purified from E. coli and activated in vitro with MAP2K1. The substrate was a recombinant truncated version (residues 19-96) of ATF2 fused with Green Fluorescent Protein (Invitrogen, Cat. PV4445). Test compounds were prepared and diluted in DMSO in 3-fold serial dilutions to 100× of the final testing concentrations. The compounds were then further diluted to 4× by the kinase reaction buffer (Invitrogen, Cat. PV3189). The enzymatic reaction for compound testing was performed in a white 384-well polypropylene plate (Packard, Cat. 6005214) with a total reaction volume of 10 μl containing 20 ng/ml ERK2, 400 nM substrate, and 5 μM ATP that is around its Km. The assay started with loading 2.5 μl of ERK2 diluted in kinase reaction buffer to wells, followed by addition of equal volume of 4× compounds for 15-min incubation at the room temperature for pre-treatment. The enzymatic reaction was initiated by addition of 5 μl of mixture of the substrate and ATP prepared in kinase reaction buffer. After one hour reaction, 10 μl mixture of EDTA (final 10 mM) and terbium-labeled anti-pATF2 (pThr71) antibody (final 2 nM) (Invitrogen, Cat. PV4451) prepared in TR-FRET antibody dilution buffer (Invitrogen, Cat. PV3574) was added to stop the enzymatic reaction and produce TR-FRET signals. After 30 minutes of incubation at room temperature, the plate was read in Tecan Infinite F200 Pro with the following settings: Excitation 340 nm (30)/Emission1 495 nm (10)/Emission2 520 nm (25). The TR-FRET values were dimensionless numbers that were calculated as the ratio of the acceptor ([…]) signal to the donor (Terbium) signal. Percent of control was calculated as the percentage of compound-treated vs 1% DMSO vehicle-treated. The dose-response curves were generated and the ICsos were calculated by nonlinear sigmoid curve fitting using GraphPad Prism.
The IC50 values of ERK2 biochemical activity for the examples disclosed herein are listed in Table 3, A: ≤10 nM; B: >10 nM and ≤50 nM; C: >50 nM and ≤100 nM; D.>100 nM.
Background: TR-FRET usually uses a lanthanide donor and a delayed reading to cut background.

Assay [2] deals with Colo205 cell line. As to the kind of experiment: Colo205 cell proliferation assay (MTT assay, WST-8 readout). As to conditions: Homo sapiens; IC50 values of growth inhibition in Colo 205 cells; 72 hours. It counts as cell-based. The procedure: Compounds disclosed herein were tested for the inhibition of ERK2 by a Colo205 cell proliferation assay commonly known as MTT assay. In this assay, a complete media was prepared by adding 10% fetal bovine serum to RPMI-1640 medium (Life technology). Colon cancer cells (Colo205 cell line) were added to each of 88 wells of a 96 well plate at a seeding density of 5,000 cells/well/90 μL. The cells were allowed to attach to the plate by incubating at 37° C. for 24 hours. The compound was dissolved in DMSO (SIGMA). A solution of test compound was prepared in complete media by serial dilution to obtain the following concentrations: 500 μM, 150 μM, 50 μM, 15 μM, 5 μM, 1.5 μM, 0.5 μM, 0.15 μM and 0.05 μM. The test compound solution (10 μL) was added to each of 80 cell-containing wells. The final concentrations of the compound were following: 50 μM, 15 μM, 5 μM, 1.5 μM, 0.5 μM, 0.15 μM, 0.05 μM, 0.015 μM and 0.005 μM. The final concentration of DMSO is 0.5%. To the 8 remaining cell-containing wells, only complete media (containing 0.5% DMSO) was added to form a control group in order to measure maximal proliferation. To the remaining 8 empty wells, complete media was added to for a vehicle control group in order to measure background. The plates were incubated at 37° C. for 72 hours. 10 μL WST-8 solution (DOJINDO, Cell Counting KIT-8) was added to each well. The plates were further incubated at 37° C. for 2 hours, and then read for the absorbance using a microplate reader at 450 nm.
The IC50 values of growth inhibition in Colo 205 cells for Compounds disclosed are listed in Table 3, A′: ≤0.5 μM; B′: >0.5 μM and ≤1 μM; C′: >1.0 μM and ≤5 uM; D′: >5 μM.
A general note: Tetrazolium dyes change colour on reduction, which living cells bring about.

T1 sequence (P28482 whole entry): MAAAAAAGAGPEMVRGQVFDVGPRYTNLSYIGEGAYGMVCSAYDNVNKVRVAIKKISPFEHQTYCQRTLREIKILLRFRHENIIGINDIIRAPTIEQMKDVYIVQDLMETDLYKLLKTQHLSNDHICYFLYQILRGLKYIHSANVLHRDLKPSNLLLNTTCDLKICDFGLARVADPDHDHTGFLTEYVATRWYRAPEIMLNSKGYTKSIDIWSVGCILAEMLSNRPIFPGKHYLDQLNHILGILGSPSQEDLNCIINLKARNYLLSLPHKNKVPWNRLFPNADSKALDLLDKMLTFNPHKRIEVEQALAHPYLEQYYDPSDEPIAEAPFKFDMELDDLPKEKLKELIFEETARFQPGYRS

By IC50 is commonly meant the point on the concentration scale where inhibition reaches its midpoint. In the case of `CC(C)Oc1ccc(-c2n[nH]c3ccc(-c4ccn([C@H](CO)c5ccc(Cl)c(F)c5)c(=O)c4)cc23)cn1` [Example 100], the IC50 in assay [1] lay within 0.01 to 0.05 µM; in assay [2] it was 1 to 5 µM.

For the molecule `CC(C)(O)c1cc(-c2n[nH]c3ccc(-c4ccn([C@H](CO)c5ccc(F)c(Cl)c5)c(=O)c4)cc23)ccn1` [Example 21], the IC50 in assay [1] is below 0.01 µM; in assay [2] it was 1 to 5 µM.

Take `CC(C)Oc1ccc(-c2n[nH]c3ccc(-c4ccn([C@H](CO)c5ccc(F)c(Cl)c5)c(=O)c4)cc23)cn1` [Example 34, (S)-1-(1-(3-chloro-4-fluorophenyl)-2-hydroxyethyl)-4-(3-(6-isopropoxypyridin-3-yl)-1H-indazol-5-yl)pyridin-2(1H)-one]: the IC50 fell in the range of 0.01 to 0.05 µM in assay [1] and 1 to 5 µM in assay [2].

Turning to `Cc1cc(-c2n[nH]c3ccc(-c4ccn(Cc5cccc(F)c5F)c(=O)c4)cc23)ccn1` [Example 81, 1-(2,3-difluorobenzyl)-4-(3-(2-methylpyridin-4-yl)-1H-indazol-5-yl)pyridin-2(1H)-one], the figures for the IC50 in assay [1] and in assay [2] were below 0.01 µM and at most 0.5 µM, respectively.

Take `Cc1cc(-c2n[nH]c3ccc(-c4ccn(Cc5cc(F)cc(C(F)(F)F)c5)c(=O)c4)cc23)ccn1` [Example 73, 1-(3-fluoro-5-(trifluoromethyl)benzyl)-4-(3-(2-methylpyridin-4-yl)-1H-indazol-5-yl)pyridin-2(1H)-one]: the IC50 is below 0.01 µM in assay [1] and 0.5 to 1 µM in assay [2].

For `Cn1cc(-c2n[nH]c3ccc(-c4ccn([C@H](CO)c5ccc(F)c(Cl)c5)c(=O)c4)cc23)cn1` [Example 37, (S)-1-(1-(3-chloro-4-fluorophenyl)-2-hydroxyethyl)-4-(3-(1-methyl-1H-pyrazol-4-yl)-1H-indazol-5-yl)pyridin-2(1H)-one], the results for the IC50 in assay [1] and in assay [2] were below 0.01 µM and at most 0.5 µM, respectively.

Consider `COc1ccc(-c2n[nH]c3ccc(-c4ccn([C@H](CO)c5cc(F)cc(Br)c5)c(=O)c4)nc23)cn1` [Example 122, (S)-1-(1-(3-bromo-5-fluorophenyl)-2-hydroxyethyl)-4-(3-(6-methoxypyridin-3-yl)-1H-pyrazolo[4,3-b]pyridin-5-yl)pyridin-2(1H)-one], for which the IC50 in assay [1] is below 0.01 µM; in assay [2], 1 to 5 µM.

With `Cc1cc(-c2n[nH]c3ccc(-c4ccn(Cc5cccc(F)c5NS(C)(=O)=O)c(=O)c4)cc23)ccn1` [Example 83, N-(2-fluoro-6-((4-(3-(2-methylpyridin-4-yl)-1H-indazol-5-yl)-2-oxopyridin-1(2H)-yl)methyl)phenyl)methanesulfonamide], the values for the IC50 in assay [1] and in assay [2] were below 0.01 µM and 1 to 5 µM, respectively.

On to `Cc1cc(-c2n[nH]c3ccc(-c4ccn(Cc5cccc(Cl)c5F)c(=O)c4)cc23)ccn1` [Example 63, 1-(3-chloro-2-fluorobenzyl)-4-(3-(2-methylpyridin-4-yl)-1H-indazol-5-yl)pyridin-2(1H)-one], for which the results for the IC50 in assay [1] and in assay [2] were below 0.01 µM and 0.5 to 1 µM, respectively.

`Cc1cc(-c2n[nH]c3ccc(-c4ccn([C@H](CO)c5cccc(Br)c5)c(=O)c4)cc23)ccn1` [Example 6, (S)-1-(1-(3-bromophenyl)-2-hydroxyethyl)-4-(3-(2-methyl-pyridin-4-yl)-1H-indazol-5-yl)pyridin-2(1H)-one]: the IC50 is below 0.01 µM in assay [1] and at most 0.5 µM in assay [2].

For `Cc1cc(-c2n[nH]c3ncc(-c4ccn([C@H](CO)c5cccc(Cl)c5)c(=O)c4)cc23)ccn1` [Example 4, (S)-1-(1-(3-chlorophenyl)-2-hydroxyethyl)-4-(3-(2-methylpyridin-4-yl)-1H-pyrazolo[3,4-b]pyridin-5-yl)pyridin-2(1H)-one], the IC50 is below 0.01 µM in assay [1] and 0.5 to 1 µM in assay [2].

`COc1ccc(-c2n[nH]c3ccc(-c4ccn([C@H](CO)c5cc(F)cc(Br)c5)c(=O)c4)cc23)cn1` [Example 103, (S)-1-(1-(3-bromo-5-fluorophenyl)-2-hydroxyethyl)-4-(3-(6-methoxypyridin-3-yl)-1H-indazol-5-yl)pyridin-2(1H)-one]: the IC50 is below 0.01 µM in assay [1] and at most 0.5 µM in assay [2].

Turning to `Cc1cc(-c2n[nH]c3ccc(-c4cc[nH]c(=O)c4)cc23)ccn1` [Example 29, 4-(3-(2-methylpyridin-4-yl)-1H-indazol-5-yl)pyridin-2(1H)-one], the IC50 in assay [1] is below 0.01 µM; in assay [2], 1 to 5 µM.

Consider `Cn1cc(-c2n[nH]c3ccc(-c4ccn([C@H](CO)c5cccc(Cl)c5)c(=O)c4)cc23)cn1` [Example 18, (S)-1-(1-(3-chlorophenyl)-2-hydroxyethyl)-4-(3-(1-methyl-1H-pyrazol-4-yl)-1H-indazol-5-yl)pyridin-2(1H)-one], for which the IC50 in assay [1] was below 0.01 µM; in assay [2], at most 0.5 µM.

On to `Cc1cc(-c2n[nH]c3ccc(-c4ccn([C@H](CO)c5cccc(Cl)c5)c(=O)c4)cc23)ccn1` [Example 1, (S)-1-(1-(3-chlorophenyl)-2-hydroxyethyl)-4-(3-(2-methyl-pyridin-4-yl)-1H-indazol-5-yl)pyridin-2(1H)-one], for which the values for the IC50 in assay [1] and in assay [2] were below 0.01 µM and at most 0.5 µM, respectively.

In the case of `Cc1cc(-c2n[nH]c3ccc(-c4ccn(Cc5ccc(F)c(C(F)(F)F)c5)c(=O)c4)cc23)ccn1` [Example 77, 1-(4-fluoro-3-(trifluoromethyl)benzyl)-4-(3-(2-methylpyridin-4-yl)-1H-indazol-5-yl)pyridin-2(1H)-one], the IC50 is below 0.01 µM in assay [1] and at most 0.5 µM in assay [2].

With `Cc1cc(-c2n[nH]c3ccc(-c4ccn(Cc5ccc(F)c(F)c5)c(=O)c4)cc23)ccn1` [Example 61, 1-(3,4-difluorobenzyl)-4-(3-(2-methylpyridin-4-yl)-1H-indazol-5-yl)pyridin-2(1H)-one], the IC50 in assay [1] was below 0.01 µM; in assay [2], 0.5 to 1 µM.

For the molecule `Cn1cc(-c2n[nH]c3ccc(-c4ccn([C@H](CO)c5cccc(C(F)(F)F)c5)c(=O)c4)cc23)cn1` [Example 42, (S)-1-(2-hydroxy-1-(3-(trifluoromethyl)phenyl)ethyl)-4-(3-(1-methyl-1H-pyrazol-4-yl)-1H-indazol-5-yl)pyridin-2(1H)-one], the IC50 was below 0.01 µM in assay [1] and 0.5 to 1 µM in assay [2].

Turning to `Cc1cc(-c2n[nH]c3ccc(-c4ccn(Cc5cc(Cl)ccc5F)c(=O)c4)cc23)ccn1` [Example 66], the IC50 in assay [1] was below 0.01 µM; in assay [2] it was 0.5 to 1 µM.

With `Cc1cc(-c2n[nH]c3cc(F)c(-c4ccn([C@H](CO)c5cccc(Cl)c5)c(=O)c4)cc23)ccn1` [Example 14, (S)-1-(1-(3-chlorophenyl)-2-hydroxyethyl)-4-(6-fluoro-3-(2-methylpyridin-4-yl)-1H-indazol-5-yl)pyridin-2(1H)-one], the figures for the IC50 in assay [1] and in assay [2] were 0.01 to 0.05 µM and 1 to 5 µM, respectively.

As to `CC(c1cc(F)cc(Br)c1)n1ccc(-c2ccc3[nH]nc([C@H]4CC[C@H](O)CC4)c3c2)cc1=O` (stereo partly drawn) [Example 140, 1-(1-(3-bromo-5-fluorophenyl)ethyl)-4-(3-((1r,4r)-4-hydroxycyclohexyl)-1H-indazol-5-yl)pyridin-2(1H)-one], the IC50 in assay [1] is below 0.01 µM; in assay [2], 1 to 5 µM.
